PMC4729198 (ACS chemical biology, 2015)
Values after ≈ are worked out from the molar mass of the structure shown. Read-outs that look alike come from different tables or passages of the source.

Experiments:
LUM assay counterscreen = type: biochemical; conditions: LOPAC pilot screen, dose-response
MtbAPSR [1] = target: T1, MtbAPSR (Mycobacterium tuberculosis, UniProt P9WIK3); assay: biochemical; parameters: species or system M. tuberculosis
[2] = tested on: Non replicating WT Mtb H37Rv; assay: Bactericidal activity against nonreplicating; type: cell-based; conditions: Mycobacterium tuberculosis
MtbAPSR [3] = target: T1, MtbAPSR; assay: biochemical; type: binding, M. tuberculosis
VERO cells = assay: Cytotoxicity in VERO cells; type: cell-based
[4] = tested on: Non replicating Msm mc2:155 ΔcysH; type: cell-based, Mycobacterium smegmatis; conditions: 2 mM methionine; Alamar Blue assay
[5] = HRP-PR H2O2 detection counterscreen for redox-cycling compounds; type: biochemical; conditions: 0.8 mM DTT
RecA = conditions: qRT-PCR, normalized to housekeeping gene SigA

T1 sequence (P9WIK3 whole entry): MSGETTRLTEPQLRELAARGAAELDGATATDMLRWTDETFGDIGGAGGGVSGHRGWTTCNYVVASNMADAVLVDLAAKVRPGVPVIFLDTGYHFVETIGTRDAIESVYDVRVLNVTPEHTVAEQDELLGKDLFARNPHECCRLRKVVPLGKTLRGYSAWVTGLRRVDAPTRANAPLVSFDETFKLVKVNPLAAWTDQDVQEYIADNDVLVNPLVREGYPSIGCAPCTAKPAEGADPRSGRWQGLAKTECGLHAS

CSc1nc(N)c2ncn([C@@H]3O[C@H](COP(=O)(O)OP(=O)(O)O)[C@@H](O)[C@H]3O)c2n1.[Na].[Na].[Na] [2-Thiomethyladenoside diphosphate trisodium, reference compound]
activity in LUM counterscreen (LUM assay counterscreen): active | activity in LUM assay (MtbAPSR [1]): active

Cc1c2ccncc2c(C)c2c1[nH]c1ccccc12 [Compound 5, ellipticine]
MBC ([2]; read-out: Non replicating WT Mtb H37Rv, (+) Met): 12.5 µM (≈ 3.08 µg/mL) | MBC ([2]; read-out: Non replicating WT Mtb H37Rv, (−) Met): 12.5 µM (≈ 3.08 µg/mL) | Kd (MtbAPSR [3]): 12 µM | activity in LUM counterscreen (LUM assay counterscreen): inactive | lethal concentration (LC90) in VERO cells (VERO cells): 63 µM | cytotoxicity fold lower compared to bactericidal activity against nonreplicating Mtb (VERO cells; VERO LC90 vs MBC): ~ 5 fold | Non replicating Msm mc2:155; MBC, ΔcysH [4]: >100 µM | IC50 (MtbAPSR [1]; LUM Assay, IC50, dose-response LUM assay, Table 1): 4.2 µM | IC50 (MtbAPSR [1]; apparent IC50 in LUM assay, LOPAC pilot screen hit, dose-response, 384-well): 11.1 µM

O=C1C(SCCO)=C(SCCO)C(=O)c2ccccc21 [NSC 95397]
generation of H2O2 in HRP-PR assay [5]: showed generation of H2O2

CO[C@@]12[C@H](COC(N)=O)C3=C(C(=O)C(C)=C(N)C3=O)N1C[C@@H]1N[C@@H]12 [mitomycin C]
upregulation of RecA (RecA): significant upregulation

Cl.N[C@@H](CCl)C(=O)O [β-Chloro-L-alanine hydrochloride, reference compound]
activity in LUM counterscreen (LUM assay counterscreen): no activity | activity in LUM assay (MtbAPSR [1]; LOPAC pilot screen, dose-response): no activity
